molecular target: T1, ErbB2 (Homo sapiens, UniProt P04626); assay: ErbB-2 substrate phosphorylation assay (HTRF); type: biochemical; conditions: Method (A): Enzyme Mix incubated with compound at 20° C. for 1 hr, reaction started by adding Substrate Mix
T1 construct: made in house; host or cells: baculovirus expression system
Summary of the method: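 Baculovirus-expressed kinase (0.8 nM EGFR or 10 nM ErbB2 in enzyme mix) with Peptide C 0.8 μM and ATP 20 μM (substrate-mix levels), MOPS pH 7.5, MnCl2; 90 min, 20 °C, HTRF anti-phosphotyrosine. Method A adds 1 h enzyme–compound preincubation; B none. pIC50, final compound 0.00027–47.6 μM.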

T1 sequence (P04626 23-1255): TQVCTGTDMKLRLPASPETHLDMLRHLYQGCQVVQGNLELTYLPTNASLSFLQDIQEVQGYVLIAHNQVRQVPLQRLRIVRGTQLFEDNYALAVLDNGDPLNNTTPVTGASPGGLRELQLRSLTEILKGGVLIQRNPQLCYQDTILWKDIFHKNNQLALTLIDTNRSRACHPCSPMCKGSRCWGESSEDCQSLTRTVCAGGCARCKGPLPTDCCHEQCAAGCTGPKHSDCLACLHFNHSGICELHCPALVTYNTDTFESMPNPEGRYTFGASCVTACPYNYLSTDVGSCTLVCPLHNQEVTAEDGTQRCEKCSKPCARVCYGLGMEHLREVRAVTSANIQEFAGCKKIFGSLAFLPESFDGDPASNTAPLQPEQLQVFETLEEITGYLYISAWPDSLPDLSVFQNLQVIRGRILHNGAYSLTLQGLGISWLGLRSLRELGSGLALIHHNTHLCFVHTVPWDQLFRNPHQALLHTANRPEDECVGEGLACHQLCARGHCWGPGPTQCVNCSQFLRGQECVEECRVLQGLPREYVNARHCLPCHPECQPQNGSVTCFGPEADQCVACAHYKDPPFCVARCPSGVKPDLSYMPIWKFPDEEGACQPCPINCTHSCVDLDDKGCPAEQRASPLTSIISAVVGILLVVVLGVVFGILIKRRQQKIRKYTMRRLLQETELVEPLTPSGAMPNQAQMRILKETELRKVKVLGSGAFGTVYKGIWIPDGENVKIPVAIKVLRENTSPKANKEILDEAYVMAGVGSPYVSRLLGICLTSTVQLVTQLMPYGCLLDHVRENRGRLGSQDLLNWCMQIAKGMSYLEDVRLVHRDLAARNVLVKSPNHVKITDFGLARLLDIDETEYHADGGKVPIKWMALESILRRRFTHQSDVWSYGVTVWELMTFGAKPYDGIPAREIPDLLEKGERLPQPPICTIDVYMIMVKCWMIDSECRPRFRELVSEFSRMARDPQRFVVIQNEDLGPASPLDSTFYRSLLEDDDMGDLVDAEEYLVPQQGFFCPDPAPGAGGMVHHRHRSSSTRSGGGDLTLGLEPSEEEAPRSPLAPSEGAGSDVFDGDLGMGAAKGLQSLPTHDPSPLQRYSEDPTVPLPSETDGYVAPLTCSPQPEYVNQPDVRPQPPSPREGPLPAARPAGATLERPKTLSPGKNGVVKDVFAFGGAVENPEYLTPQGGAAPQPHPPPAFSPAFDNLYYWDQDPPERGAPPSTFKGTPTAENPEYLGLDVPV

Row | IC50 [nM] | Structure (SMILES)
1 | < 100 | COc1cc(Nc2nccc(-c3sc(N)nc3-c3cccc(NC(=O)c4c(F)cccc4F)c3)n2)cc(OC)c1OC [Example 16, N-[3-(2-Amino-5-{2-[(3,4,5-trimethoxyphenyl)amino]pyrimidiN-4-yl}-1,3-thiazol-4-yl)phenyl]-2,6-difluorobenzamide]
2 | < 100 | COc1ccc(Nc2nccc(-c3sc(N)nc3-c3cccc(NC(=O)c4c(F)cccc4F)c3)n2)cc1N1CCNCC1 [Example 18, N-[3-(2-Amino-5-{2-[(4-methoxy-3-piperaziN-1-ylphenyl)amino]pyrimidiN-4-yl}-1,3-thiazol-4-yl)phenyl]-2,6-difluorobenzamide]
3 | > 1000 | Cc1cc(-c2sc(N)nc2-c2cccc(NC(=O)c3c(F)cccc3F)c2)nc(Nc2cccc(F)c2)n1 [Example 48, N-[3-(2-Amino-5-{2-[(3-fluorophenyl)amino]-6-methyl-4-pyrimidinyl}-1,3-thiazol-4-yl)phenyl]-2,6-difluorobenzamide]
4 | < 100 | CCNc1nc(-c2cccc(NC(=O)C3CC3)c2)c(-c2ccnc(Nc3ccc(OCCN4CCCC4)c(Cl)c3)n2)s1 [Example 63, N-{3-[5-{2-[(3-Chloro-4-{[2-(1-pyrrolidinyl)ethyl]oxy}phenyl)amino]-4-pyrimidinyl}-2-(ethylamino)-1,3-thiazol-4-yl]phenyl}cyclopropanecarboxamide]
5 | < 100 | Nc1nc(-c2cccc(C(=O)Nc3c(F)cccc3F)c2)c(-c2ccnc(Nc3cccc(CN4CCCC4)c3)n2)s1 [Example 77, 3-[2-Amino-5-(2-{[3-(1-pyrrolidinylmethyl)phenyl]amino}-4-pyrimidinyl)-1,3-thiazol-4-yl]-N-(2,6-difluorophenyl)benzamide]
6 | < 100 | Cc1nc(-c2cccc(NC(=O)c3c(F)cccc3F)c2)c(-c2ccnc(Nc3ccc(OCCN(C)C)c(Cl)c3)n2)s1 [Example 103, N-[3-(5-{2-[(3-Chloro-4-{[2-(dimethylamino)ethyl]oxy}phenyl)amino]-4-pyrimidinyl}-2-methyl-1,3-thiazol-4-yl)phenyl]-2,6-difluorobenzamide]
7 | < 100 | Cc1nc(-c2cccc(NC(=O)c3c(F)cccc3F)c2)c(-c2ccnc(Nc3ccc(OC4CCN(C(=O)OCc5ccccc5)CC4)c(F)c3)n2)s1 [Example 106]
8 | < 100 | CCc1nc(-c2cccc(NC(=O)c3c(F)cccc3F)c2)c(-c2ccnc(Nc3cccc(CN4CCCC4)c3)n2)s1 [Example 115, N-{3-[2-Ethyl-5-(2-{[3-(1-pyrrolidinylmethyl)phenyl]amino}-4-pyrimidinyl)-1,3-thiazol-4-yl]phenyl}-2,6-difluorobenzamide]
9 | < 100 | Cc1nc(-c2cccc(NC(=O)c3cc(F)ccc3F)c2)c(-c2ccnc(Nc3ccc(OCCN(C)C)c(Cl)c3)n2)o1 [Example 142]

Reference: patent publication US20110098296A1, “Thiazole And Oxazole Kinase Inhibitors” (priority 2007, published 2011)
